Experimental data: patent US9357792B2, “Fermented cereal product obtained by fermentation of rye bran with a Lactobacillus curvatus strain” (priority 2001, dated 2016)

Key:
[1] = tested on: H. pylori CCUG17875 binding to the Lewis b antigen; experiment: RIA inhibition assay: H. pylori pre-treated with product, then binding to 125I-labeled Lewis b conjugate; set-up: species or system Helicobacter pylori; settings: pretreated with 2 mM for 1 hour; FIG. 1B
[2] = tested on: H. pylori CCUG17875 adherence to human gastric mucosa; experiment: H. pylori adherence in situ to histo-sections of human gastric mucosa; assay type: cell-based, Helicobacter pylori; settings: after pretreatment with 2 mM
Protocol: Pretreatment of strain CCUG 17875 with soluble Lewis b antigen, with L. curvatus fermented rye bran and with ferric quinate is shown. Here, bacterial binding to 10 different gastric surface epithelium regions were estimated (value p<0.001(***), value p<0.01(**), value p<0.05(*)).
Bacterial adherence in situ was performed as described by Falk et al., 1993. Human biopsy samples of healthy gastric tissue were obtained from the Division for Gastroenterology, Norrland University Hospital, Umea, Sweden. The biopsies were taken from the antrum part of the stomach, then they were fixed in 4% buffered formalin and finally they were embedded in paraffin wax. Sections were stained with hematoxylin and eosin following standard procedures. H. pylori were first labeled with FITC, and bacterial adherence to the gastric mucous was then analyzed by the ability of L. curvatus-fermented rye-bran to inhibit bacterial adherence to re-hydrated histo-sections of human gastric epithelial cells in situ. For comparative inhibition analyzes, H. pylori was pre-incubated with Lewis b conjugate (10 μg/mL), and fermented rye-bran (1 mL) for 1 hour at room temperature. Then, as described above, the H. pylori bacterial cells were applied to the histo-sections. […]

Compound | inhibition of H. pylori binding to the Lewis b antigen [1] | adherence of strain CCUG17875 to the gastric tissue section epithelium [2]
O=C(O)[C@]1(O)C[C@@H](O)[C@@H](O)[C@H](O)C1 [Quinic Acid, reference compound] | no inhibition | 
Ferric Quinate | 69% | similarly much reduced
